Values after ≈ are worked out from the molar mass of the structure shown. Counter-ions that a name gives are not always drawn.
Legend:
[1] = system: non replicating phase of M. tuberculosis (H37Rv with a plasmid with an acetimidase promoter driving a luciferase gene); assay: microbe, parasite or virus in culture; type: cell-based; details: non replicating M. tuberculosis H37Rv luciferase strain; for MIC: Mycobacterium tuberculosis, read-out: LORA (TB growth inhibition, MIC)
[2] = system: H37Rv strain of M. tuberculosis; assay: Alamar Blue Susceptibility Test (MABA); type: cell-based; details: H37Rv strain of M. tuberculosis, Alamar Blue; for MIC: Mycobacterium tuberculosis, read-out: MABA (TB growth inhibition, colourimetric assay)

## c1ccc2c(NC3C4CC5CC(C4)CC3C5)nc(N3CCOCC3)nc2c1 (stereo not shown) [Compound 19, 2-Morpholino-N-(1-[2′-adamantyl])quinazolin-4-amine]
[1]
  LORA (TB growth inhibition, MIC): +++ (10-50 μM=+++)
[2]
  MABA (TB growth inhibition, colourimetric assay): +++ (10-50 μM=+++)

## C[C@@H](Nc1nc(N2CCCCC2)nc2ccccc12)c1ccc(Cl)cc1 [Compound 96, (R)—N-(1-(4-Chlorophenyl)ethyl)-2-(piperidin-1-yl)quinazolin-4-amine hydrochloride]
[1]
  MIC: 10 to 50 µM
[2]
  MIC: < 10 µM

## FC(F)(F)c1ccccc1CNc1nc(N2CCCCC2)nc2ccccc12 [Compound 42, 2-(Piperidin-1-yl)-N-(2-(trifluoromethyl)benzyl)quinazolin-4-amine]
[1]
  MIC: 10 to 50 µM (≈ 3.86 to 19.3 µg/mL)
[2]
  MIC: < 10 µM

## Clc1ccc(CNc2nc(N3CCCCC3)nc3ccccc23)cc1Cl [Compound 68, N-(3,4-Dichlorobenzyl)-2-(piperidin-1-yl)quinazolin-4-amine]
[1]
  MIC: < 10 µM
[2]
  MIC: < 10 µM

## COc1cc2nc(N3CCOCC3)nc(NCc3ccccc3)c2cc1OC [Compound 17, N-Benzyl-6,7-dimethoxy-2-morpholinoquinazolin-4-amine]
[1]
  LORA (TB growth inhibition, MIC): −
[2]
  MIC: 50 to 128 µM (≈ 19 to 48.7 µg/mL)

## c1ccc(CNc2nc(N3CCCCC3)c3ccccc3n2)cc1 [Compound 24, N-Benzyl-4-(piperidin-1-yl)quinazolin-2-amine]
[1]
  MIC: 10 to 50 µM (≈ 3.18 to 15.9 µg/mL)
[2]
  MIC: 10 to 50 µM (≈ 3.18 to 15.9 µg/mL)

## CC(Nc1nc(N2CCN(C(=O)C3CCCC3)CC2)nc2ccccc12)c1ccccc1 (stereo not shown) [Compound 21, Cyclopentyl(4-(4-(1-phenylethylamino)quinazolin-2-yl)piperazin-1-yl)methanone]
[1]
  MIC: 10 to 50 µM (≈ 4.3 to 21.5 µg/mL)
[2]
  MIC: 10 to 50 µM (≈ 4.3 to 21.5 µg/mL)

## c1ccc2c(NCC3CCCCC3)nc(N3CCCCC3)nc2c1 [Compound 45, N-(Cyclohexylmethyl)-2-(piperidin-1-yl)quinazolin-4-amine]
[1]
  MIC: 10 to 50 µM (≈ 3.24 to 16.2 µg/mL)
[2]
  MIC: < 10 µM

## Fc1cccc(CNc2nc(N3CCCCC3)nc3ccccc23)c1 [Compound 64, N-(3-Fluorobenzyl)-2-(piperidin-1-yl)quinazolin-4-amine]
[1]
  MIC: 10 to 50 µM (≈ 3.36 to 16.8 µg/mL)
[2]
  MIC: < 10 µM

## COc1ccc(CNc2nc(N3CCCCC3)nc3ccccc23)cc1 [Compound 44, N-(4-Methoxybenzyl)-2-(piperidin-1-yl)quinazolin-4-amine]
[1]
  MIC: 10 to 50 µM (≈ 3.48 to 17.4 µg/mL)
[2]
  MIC: < 10 µM

## Fc1ccccc1CNc1nc(N2CCCCC2)nc2ccccc12 [Compound 65, N-(2-Fluorobenzyl)-2-(piperidin-1-yl)quinazolin-4-amine]
[1]
  MIC: 10 to 50 µM (≈ 3.36 to 16.8 µg/mL)
[2]
  MIC: < 10 µM

## FC(F)(F)c1ccc(CNc2nc(N3CCCCC3)nc3ccccc23)cc1 [Compound 38, 2-(Piperidin-1-yl)-N-(4-(trifluoromethyl)benzyl)quinazolin-4-amine]
[1]
  MIC: < 10 µM
[2]
  MIC: < 10 µM

## Cc1ccc(CNc2nc(NCc3ccc(Cl)cc3)c3ccccc3n2)cc1 [Compound 76, N^4-(4-Chlorobenzyl)-N^2-(4-methylbenzyl)quinazoline-2,4-diamine]
[1]
  MIC: 10 to 50 µM (≈ 3.89 to 19.4 µg/mL)
[2]
  MIC: < 10 µM

## c1ccc2c(NC34CC5CC(CC(C5)C3)C4)nc(N3CCCCC3)nc2c1 [Compound 59, N-(1′-Adamantyl)-2-(piperidin-1-yl)quinazolin-4-amine]
[1]
  LORA (TB growth inhibition, MIC): ++++ (key: TB growth<10 μM=++++; 10-50 μM=+++; 50-128 μM=++; >128 μM but inhibited=+; no inhibition=−)
[2]
  MABA (TB growth inhibition, colourimetric assay): +++ (10-50 μM=+++)

## CC(C)(Nc1nc(N2CCCCC2)nc2ccccc12)c1ccccc1 [Compound 53, N-(2-Phenylpropan-2-yl)-2-(piperidin-1-yl)quinazolin-4-amine]
[1]
  MIC: 10 to 50 µM (≈ 3.46 to 17.3 µg/mL)
[2]
  MIC: < 10 µM

## c1ccc(CNc2nc(N3CCN(c4ccccc4)CC3)nc3ccccc23)cc1 [Compound 133, N-Benzyl-2-(4-phenylpiperazin-1-yl)quinazolin-4-amine hydrochloride]
[1]
  MIC: 10 to 50 µM
[2]
  MIC: < 10 µM

## CN1CCN(c2nc(NCc3ccccc3)c3ccccc3n2)CC1 [Compound 6, N-Benzyl-2-(4-methylpiperazin-1-yl)quinazolin-4-amine hydrochloride]
[1]
  MIC: 50 to 128 µM
[2]
  MIC: 50 to 128 µM

## Cc1ccc(CNc2nc(NCc3ccc(C(F)(F)F)cc3)c3ccccc3n2)cc1 [Compound 79, N^4-(4-Trifluoromethylbenzyl)-N^2-(4-methylbenzyl)quinazoline-2,4-diamine]
[1]
  MIC: 10 to 50 µM (≈ 4.22 to 21.1 µg/mL)
[2]
  MIC: < 10 µM

## Clc1ccc(CCNc2nc(N3CCCCC3)nc3ccccc23)cc1 [Compound 83, N-(4-Chlorophenethyl)-2-(piperidin-1-yl)quinazolin-4-amine hydrochloride]
[1]
  MIC: < 10 µM
[2]
  MIC: < 10 µM

## CC(Nc1nc(N2CCOCC2)nc2ccccc12)c1ccccc1 (stereo not shown) [Compound 9, 2-Morpholino-N-(1-phenylethyl)quinazolin-4-amine]
[1]
  MIC: 50 to 128 µM (≈ 16.7 to 42.8 µg/mL)
[2]
  MIC: 50 to 128 µM (≈ 16.7 to 42.8 µg/mL)

## Cc1ccc(CNc2nc(N3CCCCC3)nc3ccccc23)cc1 [Compound 43, N-(4-Methylbenzyl)-2-(piperidin-1-yl)quinazolin-4-amine]
[1]
  MIC: 10 to 50 µM (≈ 3.32 to 16.6 µg/mL)
[2]
  MIC: < 10 µM

## Clc1ccc(N2CCN(c3nc(NCc4ccccc4)c4ccccc4n3)CC2)cc1 [Compound 134, N-Benzyl-2-(4-(4-chlorophenyl)piperazin-1-yl)quinazolin-4-amine hydrochloride]
[1]
  MIC: 10 to 50 µM
[2]
  MIC: < 10 µM

## c1csc(CNc2nc(N3CCCCC3)nc3ccccc23)c1 [Compound 48, 2-(Piperidin-1-yl)-N-(thiophen-2-ylmethyl)quinazolin-4-amine]
[1]
  MIC: 10 to 50 µM (≈ 3.24 to 16.2 µg/mL)
[2]
  MIC: < 10 µM

## c1ccc(CNc2nc(N3CCOCC3)nc3ccccc23)cc1 [Compound 5, N-Benzyl-2-morpholinoquinazolin-4-amine]
[1]
  MIC: 50 to 128 µM (≈ 16 to 41 µg/mL)
[2]
  MIC: 50 to 128 µM (≈ 16 to 41 µg/mL)

## c1ccc(CNc2nc(N3CCc4ccccc4C3)nc3ccccc23)cc1 [Compound 30, N-Benzyl-2-(3,4-dihydroisoquinolin-2(1H)-yl)quinazolin-4-amine]
[1]
  MIC: < 10 µM
[2]
  MIC: < 10 µM

## FC(F)(F)c1ccc(CCNc2nc(N3CCCCC3)nc3ccccc23)cc1 [Compound 105, 2-(Piperidin-1-yl)-N-(4-(trifluoromethyl)phenethyl)quinazolin-4-amine]
[1]
  MIC: < 10 µM
[2]
  MIC: < 10 µM

## Fc1ccc(CNc2nc(N3CCCCC3)nc3ccccc23)cc1 [Compound 63, N-(4-Fluorobenzyl)-2-(piperidin-1-yl)quinazolin-4-amine]
[1]
  MIC: 10 to 50 µM (≈ 3.36 to 16.8 µg/mL)
[2]
  MIC: < 10 µM

## c1ccc(CNc2nc(NC3Cc4ccccc4C3)nc3ccccc23)cc1 [Compound 131, N^4-Benzyl-N^2-(2,3-dihydro-1H-inden-2-yl)quinazoline-2,4-diamine]
[1]
  MIC: < 10 µM
[2]
  MIC: < 10 µM

## c1ccc(CNc2nc(NCc3ccccc3)c3ccccc3n2)cc1 [Compound 18, N^2,N^4-Dibenzylquinazoline-2,4-diamine]
[1]
  MIC: 10 to 50 µM (≈ 3.4 to 17 µg/mL)
[2]
  MIC: 10 to 50 µM (≈ 3.4 to 17 µg/mL)

## Clc1ccc(CNc2nc(N3CCCCC3)nc3ccccc23)c(Cl)c1 [Compound 69, N-(2,4-Dichlorobenzyl)-2-(piperidin-1-yl)quinazolin-4-amine]
[1]
  MIC: 10 to 50 µM (≈ 3.87 to 19.4 µg/mL)
[2]
  MIC: < 10 µM

## FC(F)(F)c1cccc(CNc2nc(N3CCCCC3)nc3ccccc23)c1 [Compound 49, 2-(Piperidin-1-yl)-N-(3-(trifluoromethyl)benzyl)quinazolin-4-amine]
[1]
  MIC: 10 to 50 µM (≈ 3.86 to 19.3 µg/mL)
[2]
  MIC: < 10 µM

## COc1ccc(CCNc2nc(N3CCCCC3)nc3ccccc23)cc1 [Compound 84, N-(4-Methoxyphenethyl)-2-(piperidin-1-yl)quinazolin-4-amine hydrochloride]
[1]
  MIC: 10 to 50 µM
[2]
  MIC: < 10 µM
